Measurements published in patent publication US10785975B2, “Water and feed antimicrobial preservative” (priority 2009, dated 2020).
Like-named read-outs stand apart in the source and are kept apart here.

Legend:
Salmonella typhimurium [1] = assay: Study 7: myristic acid in propionic acid against salmonella in poultry feed; format: cell-based; settings: Myristic/Propionic acids, 24 hours after treatment
Method: (§1) Myristic acid (5%, 10% and 20%) diluted in propionic acid was tested to determine its effectiveness against salmonella in feed.
(§2) Commercial poultry feed amended with Salmonella typhimurium was treated with 1 or 3 kg/MT of the solutions listed below. Twenty four hours after treatment, 10 gr of feed was added to 90 ml Butterfield buffer, mixed and then 100 ul of the solution was plated on Standard Plate agar (triplicate plates). Plates were incubated at 37° C. for 24 hours prior to enumeration.

Salmonella typhimurium [2] = assay: Example 3: buffered organic acid mixtures with pelargonic acid in water; format: cell-based; settings: for MIC at 4 HR / MIC at 24 HR: Minimum Inhibitory Concentration of Pelargonic when mixed with acetic or propionic acid (buffered to pH 3), by linear regression
Method: Procedure: Propionic and acetic acids were buffered with ammonium hydroxide to a pH of 3 and combined with pelargonic in the ratios above. Acid content of the buffered solutions was determined by weight to weight ratio calculation (weight of acid/total weight of buffered solution) and adjusted to provide an equal acid value for each treatment. […] The pHs of the deionized water solutions were recorded and any problems with solubility noted.
100 ul of a nutrient broth culture of Salmonella typhimurium was added to each dilution tube. After addition, tubes were vortexed and allowed to stand. At 4 and 24 hours after addition of the inoculum, 100 ul of the solution was plated on Standard Plate agar (triplicate plates). Plates were incubated at 37° C. for 24 hours prior to enumeration. The minimum effective dose of each acid was determined by linear regression.

Salmonella typhimurium [3] = assay: Study 6: capric acid in acetic or propionic acid against salmonella in poultry feed; format: cell-based; settings: Capric/Propionic acids, 24 hours after treatment
Method: as §2

Salmonella typhimurium [4] = assay: Study 5: propionic, acetic and pelargonic acids alone or in combination in water; format: cell-based
Method: Propionic, acetic and pelargonic acids by themselves or in combination as listed were added to sterile deionized water to make at a 0.05%, 0.04%, 0.03%, 0.02% and 0.01% total acid solutions. The pHs of the deionized water solutions were recorded and any problems with solubility noted. 100 ul of a nutrient broth culture of Salmonella typhimurium was added to each dilution tube. After addition, tubes were vortexed and allowed to stand. At 24 hours after addition of the inoculum, 100 ul of the solution was plated on Standard Plate agar (triplicate plates). Plates were incubated at 37° C. for 24 hours prior to enumeration.

Salmonella typhimurium [5] = assay: Example 2: effect of carbon chain length of individual organic acids on antimicrobial activity in water; format: cell-based; design: MIC at 4 HR / MIC at 24 FIR: unit not given here; settings: for MIC at 4 HR / MIC at 24 FIR: Minimum Inhibitory Concentration of Organic Acids against Salmonella, by linear regression; for MIC at 24 FIR: 24 hours; for killing at […] / killing at 0.05 % / killing at 0.075 % / killing at 0.1 %: Salmonella enterica, TYPHIMURIUM
Method: 100 ul of a nutrient broth culture of Salmonella typhimurium was added to each dilution tube. After addition, tubes were vortexed and allowed to stand. At 4 and 24 hours after addition of the inoculum, 100 ul of the solution was plated on agar (triplicate plates). Plates were incubated at 37° C. for 24 hours prior to enumeration. The minimum effective dose of each acid was be determined by linear regression: […]

Salmonella typhimurium [6] = assay: Study 8: lauric acid in propionic acid against salmonella in poultry feed; format: cell-based; settings: Lauric/Propionic acids, 24 hours after treatment
Method: Lauric acid (5%, 10%, 20%) diluted with propionic acid was tested to determine its effectiveness against salmonella in feed.
[…] Twenty four hours after treatment, 10 gr of feed was added to 90 ml Butterfield buffer, mixed and then 100 ul of the solution was plated on Standard Plate agar (triplicate plates). Plates were incubated at 37° C. for 24 hours prior to enumeration.

[7] = Method: Pelargonic acid is a naturally occurring fatty acid found in almost all species of animals and plants. Because it contains nine carbon atoms, it is also called nonanoic acid has the chemical formula CH3(CH2)7COOH. It is found at low levels in many common foods and is readily broken down in the environment. It is an oily colorless fluid that solidifies at lower temperatures.
In this experiment, the effect of free fatty acids was evaluated. […] The pH of the deionized water solutions was recorded and any problems with solubility noted
as §1

C. irritans = settings: cited from earlier work
M. gypseum = settings: acids tested independently, cited from earlier work
[8] = general description in background; cited from earlier work
[9] = Test Product 0.01 % total acid solution in water
[10] = Test Product 0.02 % total acid solution in water
[11] = Test Product 0.04 % total acid solution in water
[12] = Test Product 0.05 % total acid solution in water
[13] = Product Conc. 0.025 (% total acid solution in water)
[14] = Product Conc. 0.05 (% total acid solution in water)
[15] = Product Conc. 0.075 (% total acid solution in water)
[16] = Product Conc. 0.1 (% total acid solution in water)

SMILES: CCC(=O)O [Propionic acid]
- % Reduction (Salmonella typhimurium [1]; 1 kg/MT): 90.08%
- cfu/g (Salmonella typhimurium [1]; 1 kg/MT): 3967 cfu/g
- % Reduction (Salmonella typhimurium [1]; 3 kg/MT): 99.42%
- cfu/g (Salmonella typhimurium [1]; 3 kg/MT): 233 cfu/g
- MIC at 4 HR (Salmonella typhimurium [2]): 0.179
- MIC at 24 HR (Salmonella typhimurium [2]): 0.064
- % Reduction (Salmonella typhimurium [3]; 1 kg/ton): 0%
- cfu/g (Salmonella typhimurium [3]; 1 kg/ton): 4633 cfu/g
- % Reduction (Salmonella typhimurium [3]; 3 kg/ton): 0%
- cfu/g (Salmonella typhimurium [3]; 3 kg/ton): 5633 cfu/g
- Salmonella 24 hr afterTreatment (cfu/g) (Salmonella typhimurium [4]; [9]): 1200 cfu/g
- Salmonella 24 hr afterTreatment (cfu/g) (Salmonella typhimurium [4]; [10]): 870 cfu/g
- Salmonella 24 hr afterTreatment (cfu/g) (Salmonella typhimurium [4]; Test Product 0.03 % total acid solution in water): 810 cfu/g
- Salmonella 24 hr afterTreatment (cfu/g) (Salmonella typhimurium [4]; [11]): 910 cfu/g
- Salmonella 24 hr afterTreatment (cfu/g) (Salmonella typhimurium [4]; [12]): 560 cfu/g
- MIC at 4 HR (Salmonella typhimurium [5]; 4 hr): 0166
- MIC at 24 FIR (Salmonella typhimurium [5]): 0.066
- Salmonella at time Interval 4 hr cfu/g (Salmonella typhimurium [5]; Product Conc. 0.025 (% acid solution in water), 4 hr): 1167 cfu/g
- Salmonella at time Interval 24 hr cfu/g (Salmonella typhimurium [5]; Product Conc. 0.025 (% acid solution in water), 24 hr): 170 cfu/g
- Salmonella at time Interval 4 hr cfu/g (Salmonella typhimurium [5]; Product Conc. 0.05 (% acid solution in water), 4 hr): 900 cfu/g
- Salmonella at time Interval 24 hr cfu/g (Salmonella typhimurium [5]; Product Conc. 0.05 (% acid solution in water), 24 hr): 40 cfu/g
- Salmonella at time Interval 4 hr cfu/g (Salmonella typhimurium [5]; Product Conc. 0.075 (% acid solution in water), 4 hr): 877 cfu/g
- Salmonella at time Interval 24 hr cfu/g (Salmonella typhimurium [5]; Product Conc. 0.075 (% acid solution in water), 24 hr): 25 cfu/g
- Salmonella at time Interval 4 hr cfu/g (Salmonella typhimurium [5]; Product Conc. 0.1 (% acid solution in water), 4 hr): 773 cfu/g
- Salmonella at time Interval 24 hr cfu/g (Salmonella typhimurium [5]; Product Conc. 0.1 (% acid solution in water), 24 hr): 30 cfu/g
- killing at […] (Salmonella typhimurium [5]; Product Conc. 0.025 (% acid solution in water), 4 hr, read-out: Salmonella at time Interval 4 hr % reduction): 27%
- killing at […] (Salmonella typhimurium [5]; Product Conc. 0.025 (% acid solution in water), 24 hr, read-out: Salmonella at time Interval 24 hr % reduction): 90%
- killing at 0.05 % (Salmonella typhimurium [5]; Product Conc. 0.05 (% acid solution in water), 4 hr, read-out: Salmonella at time Interval 4 hr % reduction): 44%
- killing at 0.05 % (Salmonella typhimurium [5]; Product Conc. 0.05 (% acid solution in water), 24 hr, read-out: Salmonella at time Interval 24 hr % reduction): 98%
- killing at 0.075 % (Salmonella typhimurium [5]; Product Conc. 0.075 (% acid solution in water), 4 hr, read-out: Salmonella at time Interval 4 hr % reduction): 45%
- killing at 0.075 % (Salmonella typhimurium [5]; Product Conc. 0.075 (% acid solution in water), 24 hr, read-out: Salmonella at time Interval 24 hr % reduction): 99%
- killing at 0.1 % (Salmonella typhimurium [5]; Product Conc. 0.1 (% acid solution in water), 4 hr, read-out: Salmonella at time Interval 4 hr % reduction): 52%
- killing at 0.1 % (Salmonella typhimurium [5]; Product Conc. 0.1 (% acid solution in water), 24 hr, read-out: Salmonella at time Interval 24 hr % reduction): 98%
- % Reduction (Salmonella typhimurium [6]; 1 kg/MT): 92.3%
- cfu/g (Salmonella typhimurium [6]; 1 kg/MT): 2567 cfu/g
- % Reduction (Salmonella typhimurium [6]; 3 kg/MT): 100.0%
- cfu/g (Salmonella typhimurium [6]; 3 kg/MT): 0 cfu/g

SMILES: CCCCCCCCC(=O)O [Pelargonic acid]
- solubility in water [7]: not soluble in water
- controlling the growth of the parasite C. irritans (C. irritans): effective in controlling the growth
- minimum inhibitory concentration (MTC) to prevent growth of M. gypseum (M. gypseum; in liquid media): 50 µg/mL
- minimum inhibitory concentration (MTC) to prevent growth of M. gypseum (M. gypseum; on solid media): 40 µg/mL
- MIC at 4 HR (Salmonella typhimurium [2]): <0.025
- MIC at 24 HR (Salmonella typhimurium [2]): <0.025
- Salmonella at time Interval 4 hr % reduction (Salmonella typhimurium [2]; [13]): 100%
- Salmonella at time Interval 4 hr cfu/g (Salmonella typhimurium [2]; [13]): 0 cfu/g
- Salmonella at time Interval 24 hr % reduction (Salmonella typhimurium [2]; [13]): 100%
- Salmonella at time Interval 24 hr cfu/g (Salmonella typhimurium [2]; [13]): 0 cfu/g
- Salmonella at time Interval 4 hr % reduction (Salmonella typhimurium [2]; [14]): 100%
- Salmonella at time Interval 4 hr cfu/g (Salmonella typhimurium [2]; [14]): 0 cfu/g
- Salmonella at time Interval 24 hr % reduction (Salmonella typhimurium [2]; [14]): 100%
- Salmonella at time Interval 24 hr cfu/g (Salmonella typhimurium [2]; [14]): 0 cfu/g
- Salmonella at time Interval 4 hr % reduction (Salmonella typhimurium [2]; [15]): 100%
- Salmonella at time Interval 4 hr cfu/g (Salmonella typhimurium [2]; [15]): 0 cfu/g
- Salmonella at time Interval 24 hr % reduction (Salmonella typhimurium [2]; [15]): 100%
- Salmonella at time Interval 24 hr cfu/g (Salmonella typhimurium [2]; [15]): 0 cfu/g
- Salmonella at time Interval 4 hr % reduction (Salmonella typhimurium [2]; [16]): 100%
- Salmonella at time Interval 4 hr cfu/g (Salmonella typhimurium [2]; [16]): 0 cfu/g
- Salmonella at time Interval 24 hr % reduction (Salmonella typhimurium [2]; [16]): 100%
- Salmonella at time Interval 24 hr cfu/g (Salmonella typhimurium [2]; [16]): 0 cfu/g
- Salmonella 24 hr afterTreatment (cfu/g) (Salmonella typhimurium [4]; [9]): 1400 cfu/g
- Salmonella 24 hr afterTreatment (cfu/g) (Salmonella typhimurium [4]; [10]): 1300 cfu/g
- Salmonella 24 hr afterTreatment (cfu/g) (Salmonella typhimurium [4]; [11]): 1500 cfu/g
- Salmonella 24 hr afterTreatment (cfu/g) (Salmonella typhimurium [4]; [12]): 850 cfu/g
- MIC at 4 HR (Salmonella typhimurium [5]; 4 hr): 0.063
- MIC at 24 FIR (Salmonella typhimurium [5]): <0.025
- solubility in water [8]: almost insoluble in water

SMILES: CCCCCCCCCCCC(=O)O [lauric, Lauric acid]
- solubility in water [7]: not soluble in water
